Results reported in the supplement of paper PMC8882468.

Key:
Experiment in all cases: CTG-3D luminescence at 96 h relative to day-0 seeding control (ratio to day 0); higher = more growth / less cytotoxicity; PDxO 3D drug screen, 96 h, CTG-3D normalised to day-0 seeding control.
[1] = system: HCI-012 (organoid from a breast cancer xenograft)
[2] = system: HCI-003.E2 (organoid from an ER-positive breast cancer xenograft)
[3] = system: HCI-001 (organoid from a triple-negative breast cancer xenograft)
[4] = system: HCI-024 (organoid from a breast cancer xenograft)
[5] = system: HCI-027 (organoid from a triple-negative breast cancer xenograft)

Cc1cc(Nc2ncnc3ccc(NC4=NC(C)(C)CO4)cc23)ccc1Oc1ccn2ncnc2c1 [tucatinib]
CTG-3D luminescence at 96 h
Conditions	12.5 pM	0.00025 µM	0.005 µM	0.1 µM	1 µM	10 µM	100 µM	625 fM
[1], days in culture: 143	2.24	2.35	2.17	2.39	2.43	1.99	0.0289	2.05
[1], days in culture: 162	2.64	2.24	1.87	3.58	2.71	2.41	0.0168	2.94
[1], days in culture: 201	2.71	2.13	1.62	1.73	2.34	1.37	0.053	1.83
[3], days in culture: 240	1.47	0.88	0.65	1.24	1.37	1.02	0.0264	1.43
[3], days in culture: 260	2.62	0.988	1.22	1.38	0.756	1.46	0.206	1.5
[3], days in culture: 269	1.48	1.49	1.39	1.64	1.38	1.67	0.0618	1.69
[3], days in culture: 327	1.8	1.6	1.87	1.75	1.44	1.16	0.0356	1.78
[3], days in culture: 346	1.47	1.22	1.17	1	1.24	1.25	0.0455	1.21
[3], days in culture: 364	1.49	1.19	1.34	0.88	0.895	1.28	0.0245	1.63
[4], days in culture: 105	1.67	1.75	1.37	1.61	1.49	1.54	0.0289	2.2
[4], days in culture: 122	1.99	2.82	2.36	1.93	1.73	1.83	0.0421	2.27
[4], days in culture: 163	1.68	1.9	1.49	2.11	1.77	1.88	0.0384	2.18
[5], days in culture: 176	2.4	1.31	2.9	2.1	1.61	0.414	0.0112	1.82
[5], days in culture: 194	1.81	1.55	1.49	1.66	2.06	1.41	0.0114	1.7
[5], days in culture: 201	2.47	2.58	2.3	2.28	2.1	0.716	0.01	2.42

[2]
Conditions	CTG-3D luminescence at 96 h
12.5 pM	2.15
0.00025 µM	2.41
0.005 µM	2.02
0.1 µM	2.29
1 µM	1.93
10 µM	1.31
100 µM	0.018
625 fM	2.12

CNC(=O)c1cccc(-c2ccc3c(N4CCOC[C@@H]4C)nc(N4CCOC[C@@H]4C)nc3n2)c1 [vistusertib]
CTG-3D luminescence at 96 h
Conditions	12.5 pM	0.00025 µM	0.005 µM	0.1 µM	1 µM	10 µM	100 µM	625 fM
[1], days in culture: 143	2.08	2.14	2.4	1.9	1.14	0.875	0.292	1.87
[1], days in culture: 162	2.68	2.6	1.94	2.8	1.21	1.06	0.318	3.34
[1], days in culture: 201	2.73	1.99	1.53	1.7	1.42	0.57	0.745	1.48
[3], days in culture: 240	1.6	1.12	0.733	0.68	0.589	0.404	0.27	1.82
[3], days in culture: 260	2.82	1.1	1.62	1.31	0.501	0.89	0.406	1.23
[3], days in culture: 269	1.63	1.62	1.55	1.03	0.524	0.533	0.378	1.6
[3], days in culture: 327	1.63	1.59	1.68	1.5	1.09	0.485	0.721	1.93
[3], days in culture: 346	1.29	1.31	1.14	0.926	0.641	0.549	0.566	1.28
[3], days in culture: 364	1.51	1.3	1.38	0.795	0.495	0.606	0.601	1.78
[4], days in culture: 105	1.75	1.79	1.36	1.28	0.65	0.778	0.554	1.79
[4], days in culture: 122	2.25	2.36	2.05	1.84	0.987	1.07	0.813	2.77
[4], days in culture: 163	1.9	2.22	1.73	2.31	1.19	0.949	0.662	1.95
[5], days in culture: 176	2.07	1.54	3.05	1.73	0.81	0.32	0.123	2.96
[5], days in culture: 194	1.93	1.49	1.77	1.58	1.03	0.803	0.226	1.84
[5], days in culture: 201	1.74	2.52	2.47	2.11	1.06	0.501	0.169	2.26

[2]
Conditions	CTG-3D luminescence at 96 h
12.5 pM	2.24
0.00025 µM	2.07
0.005 µM	2.3
0.1 µM	1.4
1 µM	0.0994
10 µM	0.0512
100 µM	0.0137
625 fM	2.1

O=C(c1ccc(F)c(F)c1Nc1ccc(I)cc1F)N1CC(O)([C@@H]2CCCCN2)C1 [cobimetinib]
CTG-3D luminescence at 96 h
Conditions	12.5 pM	0.00025 µM	0.005 µM	0.1 µM	1 µM	10 µM	100 µM	625 fM
[1], days in culture: 143	1.73	1.86	1.88	1.87	1.57	0.758	-0.00459	1.71
[1], days in culture: 162	2.44	2.1	1.91	2.85	1.59	1.45	0.00171	2.91
[1], days in culture: 201	2.69	1.53	1.69	1.91	2.24	1.02	-0.00449	1.35
[3], days in culture: 240	1.59	1.08	1.09	1.08	1.32	0.812	0.00168	1.41
[3], days in culture: 260	2.44	1.15	1.46	1.28	1.58	1.5	0.00186	1.87
[3], days in culture: 269	1.48	1.58	1.56	1.49	1.26	1.83	-0.00203	1.53
[3], days in culture: 327	1.36	1.44	1.72	1.75	1.43	1.04	0.00317	1.52
[3], days in culture: 346	1.24	1.22	1.07	1.14	1.13	1.22	-7.73e-05	1.11
[3], days in culture: 364	1.35	1.27	1.3	0.986	0.9	0.905	0.000378	1.51
[4], days in culture: 105	1.71	1.74	1.38	1.36	0.803	0.316	-0.00552	2.08
[4], days in culture: 122	2.66	2.28	2.13	1.03	0.873	0.979	-0.000547	3.01
[4], days in culture: 163	1.51	2.19	1.89	2.26	1.17	0.872	-0.0079	2.15
[5], days in culture: 176	2.03	1.26	2.15	1.13	1.04	0.17	0.0169	1.76
[5], days in culture: 194	1.89	1.29	1.38	1.42	1.56	0.796	0.014	1.65
[5], days in culture: 201	1.99	1.85	1.63	1.68	0.995	0.365	0.0102	2.09

[2]
Conditions	CTG-3D luminescence at 96 h
12.5 pM	2.11
0.00025 µM	2.48
0.005 µM	1.98
0.1 µM	2.18
1 µM	1.66
10 µM	1.64
100 µM	0.00926
625 fM	1.93
